Data reported in ChEMBL document CHEMBL5465560, “Selectivity Literature for EUbOPEN Chemogenomic Library” (2024).
Each block holds one compound with its values, some of them ahead of it.

Assays:
[1] = target: Small conductance calcium-activated potassium channel protein 1 (Homo sapiens) (UniProt Q92952); assay: Selectivity interaction (Eurofins CEREP Diversity Profile (receptors and ion channels)) EUB0000279b KCNN1; details: at 10 µM
[2] = target: Casein kinase II subunit alpha' (Homo sapiens) (UniProt P19784); assay: Selectivity interaction (Ambit KINOMEscan and KiNATiv profiling in Jurkat cells) EUB0000090b CSNK2A2; format: cell-based; details: at 1 µM
Casein kinase II subunit alpha' (Homo sapiens), sequence (P19784 whole entry, looked up): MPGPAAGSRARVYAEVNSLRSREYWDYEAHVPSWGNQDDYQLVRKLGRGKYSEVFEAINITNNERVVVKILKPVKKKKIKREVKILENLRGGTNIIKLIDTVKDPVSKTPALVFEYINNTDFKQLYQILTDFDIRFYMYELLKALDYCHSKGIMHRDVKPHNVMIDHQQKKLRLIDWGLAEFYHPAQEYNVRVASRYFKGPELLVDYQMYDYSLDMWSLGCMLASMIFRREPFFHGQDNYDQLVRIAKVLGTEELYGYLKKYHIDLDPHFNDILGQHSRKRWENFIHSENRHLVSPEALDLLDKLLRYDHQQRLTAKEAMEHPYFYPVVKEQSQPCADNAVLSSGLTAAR

[3] = target: T1, Serine/threonine-protein kinase DCLK2 (Homo sapiens) (UniProt Q8N568); assay: Selectivity interaction (KinomeScan (DiscoverX)) EUB0000607a DCLK2; details: at 10 µM
T1 sequence (whole entry): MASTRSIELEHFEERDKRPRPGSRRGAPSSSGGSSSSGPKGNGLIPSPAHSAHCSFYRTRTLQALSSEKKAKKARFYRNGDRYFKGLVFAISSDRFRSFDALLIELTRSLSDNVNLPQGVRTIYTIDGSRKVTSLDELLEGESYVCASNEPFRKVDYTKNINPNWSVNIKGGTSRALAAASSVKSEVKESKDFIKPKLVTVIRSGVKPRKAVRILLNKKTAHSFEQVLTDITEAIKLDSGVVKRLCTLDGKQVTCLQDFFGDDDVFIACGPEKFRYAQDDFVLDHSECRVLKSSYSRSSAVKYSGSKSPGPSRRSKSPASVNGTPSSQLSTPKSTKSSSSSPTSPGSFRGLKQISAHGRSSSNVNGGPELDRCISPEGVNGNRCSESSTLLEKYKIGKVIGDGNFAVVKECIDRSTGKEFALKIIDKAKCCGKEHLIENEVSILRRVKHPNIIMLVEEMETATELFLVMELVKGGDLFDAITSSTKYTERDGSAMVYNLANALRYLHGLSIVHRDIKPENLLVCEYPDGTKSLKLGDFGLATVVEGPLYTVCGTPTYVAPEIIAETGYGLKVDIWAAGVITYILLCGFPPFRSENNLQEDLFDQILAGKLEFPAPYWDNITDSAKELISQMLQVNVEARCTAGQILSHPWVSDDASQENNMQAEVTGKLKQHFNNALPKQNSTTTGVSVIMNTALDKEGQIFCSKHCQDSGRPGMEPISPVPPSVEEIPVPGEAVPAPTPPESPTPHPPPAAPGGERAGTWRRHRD

[4] = target: Macrophage colony-stimulating factor 1 receptor (Homo sapiens) (UniProt P07333); assay: Selectivity interaction (SelectScreen profiling (Invitrogen)) EUB0000607a CSF1R; details: at 2 µM
Macrophage colony-stimulating factor 1 receptor (Homo sapiens), sequence (P07333 whole entry): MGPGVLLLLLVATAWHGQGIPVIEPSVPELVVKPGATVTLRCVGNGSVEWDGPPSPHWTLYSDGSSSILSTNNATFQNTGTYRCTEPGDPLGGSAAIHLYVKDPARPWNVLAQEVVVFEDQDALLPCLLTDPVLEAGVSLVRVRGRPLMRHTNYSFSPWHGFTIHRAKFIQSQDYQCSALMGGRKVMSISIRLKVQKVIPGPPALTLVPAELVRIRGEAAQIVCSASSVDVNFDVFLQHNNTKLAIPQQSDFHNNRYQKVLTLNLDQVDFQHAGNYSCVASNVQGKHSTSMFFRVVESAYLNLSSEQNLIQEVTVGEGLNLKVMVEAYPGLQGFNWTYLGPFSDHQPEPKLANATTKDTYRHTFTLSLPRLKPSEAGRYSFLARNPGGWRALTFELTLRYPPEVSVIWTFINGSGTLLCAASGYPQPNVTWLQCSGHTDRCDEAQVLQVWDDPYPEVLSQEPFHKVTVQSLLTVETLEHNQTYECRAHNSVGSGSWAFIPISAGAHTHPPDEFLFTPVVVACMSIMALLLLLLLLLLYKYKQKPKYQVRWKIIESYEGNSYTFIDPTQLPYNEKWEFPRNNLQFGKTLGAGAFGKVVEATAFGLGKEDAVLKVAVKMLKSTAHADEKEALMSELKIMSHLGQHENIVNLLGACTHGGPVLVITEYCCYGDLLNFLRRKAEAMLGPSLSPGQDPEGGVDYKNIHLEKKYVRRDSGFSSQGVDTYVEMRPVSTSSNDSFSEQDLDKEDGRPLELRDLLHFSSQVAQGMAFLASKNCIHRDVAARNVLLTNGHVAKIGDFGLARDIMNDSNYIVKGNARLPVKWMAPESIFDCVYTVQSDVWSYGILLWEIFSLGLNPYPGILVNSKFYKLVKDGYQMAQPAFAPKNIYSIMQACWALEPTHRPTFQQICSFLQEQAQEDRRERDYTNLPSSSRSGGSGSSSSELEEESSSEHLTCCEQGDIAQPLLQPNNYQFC

[5] = target: T2, cGMP-dependent protein kinase 1 (Homo sapiens) (UniProt Q13976); assay: Selectivity interaction (KinomeScan (DiscoverX)) EUB0001619a PRKG1; details: at 1 µM
T2 sequence (whole entry): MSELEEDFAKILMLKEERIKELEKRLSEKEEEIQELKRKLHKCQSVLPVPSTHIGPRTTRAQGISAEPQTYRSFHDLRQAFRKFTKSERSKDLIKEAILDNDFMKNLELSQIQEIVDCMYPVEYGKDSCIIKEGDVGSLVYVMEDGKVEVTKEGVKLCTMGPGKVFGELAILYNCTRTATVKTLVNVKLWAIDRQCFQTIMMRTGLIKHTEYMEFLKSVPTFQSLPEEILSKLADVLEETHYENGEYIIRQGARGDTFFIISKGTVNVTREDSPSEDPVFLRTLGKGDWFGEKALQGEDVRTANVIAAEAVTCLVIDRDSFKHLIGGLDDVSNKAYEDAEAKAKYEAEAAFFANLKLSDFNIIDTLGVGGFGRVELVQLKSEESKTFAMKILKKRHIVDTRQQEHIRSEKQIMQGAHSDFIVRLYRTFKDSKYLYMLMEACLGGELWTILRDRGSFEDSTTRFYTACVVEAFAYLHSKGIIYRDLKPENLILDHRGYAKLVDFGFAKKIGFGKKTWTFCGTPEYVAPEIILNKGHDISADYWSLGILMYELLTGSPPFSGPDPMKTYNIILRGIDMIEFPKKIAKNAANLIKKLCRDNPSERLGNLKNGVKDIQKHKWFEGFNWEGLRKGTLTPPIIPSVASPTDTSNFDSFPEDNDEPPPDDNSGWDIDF

[6] = target: Serine/threonine-protein kinase tousled-like 2 (Homo sapiens) (UniProt Q86UE8); assay: Selectivity interaction (KinomeScan (DiscoverX)) EUB0001619a TLK2; details: at 1 µM
Serine/threonine-protein kinase tousled-like 2 (Homo sapiens), sequence (Q86UE8 whole entry, looked up): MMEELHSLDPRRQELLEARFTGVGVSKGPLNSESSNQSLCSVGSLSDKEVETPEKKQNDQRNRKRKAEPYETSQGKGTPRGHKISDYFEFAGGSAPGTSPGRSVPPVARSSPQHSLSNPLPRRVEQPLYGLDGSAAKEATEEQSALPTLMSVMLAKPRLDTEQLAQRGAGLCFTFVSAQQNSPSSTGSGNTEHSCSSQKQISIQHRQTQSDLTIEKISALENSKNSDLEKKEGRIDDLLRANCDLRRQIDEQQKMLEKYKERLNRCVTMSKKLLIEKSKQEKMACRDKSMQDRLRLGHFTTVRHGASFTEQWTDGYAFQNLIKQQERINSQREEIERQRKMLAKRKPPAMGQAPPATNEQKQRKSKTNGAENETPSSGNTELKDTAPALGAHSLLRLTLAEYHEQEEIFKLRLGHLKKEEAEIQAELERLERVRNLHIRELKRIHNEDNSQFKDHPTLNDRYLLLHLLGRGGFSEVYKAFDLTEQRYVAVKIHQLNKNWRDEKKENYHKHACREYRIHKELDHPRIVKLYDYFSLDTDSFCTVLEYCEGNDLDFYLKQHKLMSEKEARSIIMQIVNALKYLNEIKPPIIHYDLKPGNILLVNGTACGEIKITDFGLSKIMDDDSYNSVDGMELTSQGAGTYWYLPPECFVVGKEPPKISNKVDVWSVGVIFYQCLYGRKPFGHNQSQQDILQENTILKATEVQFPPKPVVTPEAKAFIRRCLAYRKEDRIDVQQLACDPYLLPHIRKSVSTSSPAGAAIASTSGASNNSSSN

[7] = target: Bone morphogenetic protein receptor type-1A (Homo sapiens, UniProt P36894); assay: Selectivity interaction (KinomeScan (DiscoverX)) EUB0000045b BMPR1A
Bone morphogenetic protein receptor type-1A, sequence (P36894 whole entry): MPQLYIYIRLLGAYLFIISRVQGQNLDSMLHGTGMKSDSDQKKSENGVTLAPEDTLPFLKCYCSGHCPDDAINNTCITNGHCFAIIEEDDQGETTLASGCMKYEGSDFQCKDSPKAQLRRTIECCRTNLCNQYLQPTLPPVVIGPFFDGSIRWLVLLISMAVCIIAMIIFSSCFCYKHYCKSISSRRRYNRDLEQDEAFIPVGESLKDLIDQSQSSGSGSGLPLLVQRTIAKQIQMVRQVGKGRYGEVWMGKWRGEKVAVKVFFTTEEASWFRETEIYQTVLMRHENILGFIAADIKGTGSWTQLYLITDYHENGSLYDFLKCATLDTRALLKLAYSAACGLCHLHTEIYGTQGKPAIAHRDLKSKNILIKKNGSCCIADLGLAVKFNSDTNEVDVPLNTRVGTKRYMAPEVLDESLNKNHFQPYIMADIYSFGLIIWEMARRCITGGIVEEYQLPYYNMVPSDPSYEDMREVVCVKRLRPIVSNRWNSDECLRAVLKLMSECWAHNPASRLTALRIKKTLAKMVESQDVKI

[8] = target: Ribosomal protein S6 kinase alpha-3 (Homo sapiens, UniProt P51812); assay: Selectivity interaction (Upstate Kinase Profiler service (Millipore)) EUB0000056c RPS6KA3; details: at 1 µM
Ribosomal protein S6 kinase alpha-3, sequence (P51812 whole entry): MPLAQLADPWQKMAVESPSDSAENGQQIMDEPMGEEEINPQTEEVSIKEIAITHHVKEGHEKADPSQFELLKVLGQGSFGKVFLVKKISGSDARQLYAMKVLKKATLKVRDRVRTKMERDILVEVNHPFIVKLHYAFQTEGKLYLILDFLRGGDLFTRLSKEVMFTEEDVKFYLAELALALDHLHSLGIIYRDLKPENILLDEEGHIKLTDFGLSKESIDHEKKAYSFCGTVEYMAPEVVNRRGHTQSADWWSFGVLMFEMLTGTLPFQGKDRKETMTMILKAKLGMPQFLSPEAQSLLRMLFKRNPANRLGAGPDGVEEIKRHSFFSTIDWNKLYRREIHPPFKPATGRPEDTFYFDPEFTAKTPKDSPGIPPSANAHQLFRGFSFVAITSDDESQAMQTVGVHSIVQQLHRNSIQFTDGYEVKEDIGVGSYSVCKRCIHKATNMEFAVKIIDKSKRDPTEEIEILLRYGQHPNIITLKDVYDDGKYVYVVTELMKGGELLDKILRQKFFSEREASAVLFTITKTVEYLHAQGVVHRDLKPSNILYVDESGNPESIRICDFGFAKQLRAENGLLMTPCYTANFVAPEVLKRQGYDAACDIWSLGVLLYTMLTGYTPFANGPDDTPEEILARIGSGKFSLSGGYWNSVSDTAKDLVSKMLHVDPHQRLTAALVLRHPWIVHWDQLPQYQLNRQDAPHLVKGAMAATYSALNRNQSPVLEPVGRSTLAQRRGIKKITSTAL

[9] = target: T3, Myotonin-protein kinase (Homo sapiens) (UniProt Q09013); assay: Selectivity interaction (Upstate Kinase Profiler service (Millipore)) EUB0000056c DMPK; details: at 1 µM
T3 sequence (whole entry): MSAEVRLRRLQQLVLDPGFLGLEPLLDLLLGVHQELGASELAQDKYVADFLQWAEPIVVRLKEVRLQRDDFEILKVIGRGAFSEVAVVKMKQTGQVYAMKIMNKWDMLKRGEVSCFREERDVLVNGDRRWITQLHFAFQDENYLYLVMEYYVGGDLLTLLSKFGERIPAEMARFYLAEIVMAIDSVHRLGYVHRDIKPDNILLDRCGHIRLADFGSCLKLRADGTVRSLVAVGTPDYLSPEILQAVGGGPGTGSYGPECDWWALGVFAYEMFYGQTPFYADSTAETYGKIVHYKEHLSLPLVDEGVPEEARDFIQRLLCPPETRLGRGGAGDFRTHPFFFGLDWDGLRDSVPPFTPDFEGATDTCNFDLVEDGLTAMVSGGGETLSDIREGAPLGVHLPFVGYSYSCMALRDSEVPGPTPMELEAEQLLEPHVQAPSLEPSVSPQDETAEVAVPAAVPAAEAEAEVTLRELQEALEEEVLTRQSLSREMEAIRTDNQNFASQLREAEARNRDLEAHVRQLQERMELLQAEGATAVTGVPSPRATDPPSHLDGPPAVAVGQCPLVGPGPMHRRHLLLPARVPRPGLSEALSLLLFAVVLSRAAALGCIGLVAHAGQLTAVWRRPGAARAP

[10] = target: Protein arginine N-methyltransferase 6 (Homo sapiens, UniProt Q96LA8); details: at 10 µM
[11] = target: Serine/threonine-protein kinase pim-2 (Homo sapiens, UniProt Q9P1W9)
Serine/threonine-protein kinase pim-2, sequence (Q9P1W9 whole entry): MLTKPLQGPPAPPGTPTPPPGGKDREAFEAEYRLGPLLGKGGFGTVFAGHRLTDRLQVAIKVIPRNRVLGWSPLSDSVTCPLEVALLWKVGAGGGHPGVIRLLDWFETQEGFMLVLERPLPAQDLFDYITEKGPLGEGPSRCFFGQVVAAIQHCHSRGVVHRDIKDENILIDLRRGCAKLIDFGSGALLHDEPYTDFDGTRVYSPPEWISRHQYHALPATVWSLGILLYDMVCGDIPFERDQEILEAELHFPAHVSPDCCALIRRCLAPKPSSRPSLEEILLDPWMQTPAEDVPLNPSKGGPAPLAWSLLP

[12] = target: Mitogen-activated protein kinase kinase kinase kinase 5 (Homo sapiens) (UniProt Q9Y4K4); assay: Selectivity interaction (ProQinase) EUB0000171b MAP4K5
Mitogen-activated protein kinase kinase kinase kinase 5 (Homo sapiens), sequence (Q9Y4K4 whole entry, looked up): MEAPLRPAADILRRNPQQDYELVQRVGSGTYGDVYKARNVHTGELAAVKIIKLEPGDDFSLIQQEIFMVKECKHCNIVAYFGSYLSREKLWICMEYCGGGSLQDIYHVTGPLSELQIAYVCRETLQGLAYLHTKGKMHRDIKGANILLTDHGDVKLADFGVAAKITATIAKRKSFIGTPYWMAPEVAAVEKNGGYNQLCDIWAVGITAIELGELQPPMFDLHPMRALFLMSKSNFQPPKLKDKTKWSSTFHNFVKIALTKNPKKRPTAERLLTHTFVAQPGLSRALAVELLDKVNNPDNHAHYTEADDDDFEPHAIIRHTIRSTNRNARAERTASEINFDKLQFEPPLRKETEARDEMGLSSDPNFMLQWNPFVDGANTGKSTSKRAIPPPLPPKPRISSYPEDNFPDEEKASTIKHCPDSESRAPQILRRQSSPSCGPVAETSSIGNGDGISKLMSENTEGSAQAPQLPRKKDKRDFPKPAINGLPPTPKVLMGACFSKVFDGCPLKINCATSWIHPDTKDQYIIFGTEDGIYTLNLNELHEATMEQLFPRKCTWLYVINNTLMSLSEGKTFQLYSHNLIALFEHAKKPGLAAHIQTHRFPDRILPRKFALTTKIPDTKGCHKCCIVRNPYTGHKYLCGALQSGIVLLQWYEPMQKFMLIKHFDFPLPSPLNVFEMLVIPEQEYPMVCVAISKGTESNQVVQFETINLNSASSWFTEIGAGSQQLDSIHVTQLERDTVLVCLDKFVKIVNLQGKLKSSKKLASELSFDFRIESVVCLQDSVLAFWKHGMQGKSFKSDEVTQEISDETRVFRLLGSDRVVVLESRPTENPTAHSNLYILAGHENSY

[13] = target: Cyclin-dependent kinase 14 (Homo sapiens) (UniProt O94921); assay: Selectivity interaction (KinomeScan (DiscoverX)) EUB0000092b CDK14; details: at 10 µM
Cyclin-dependent kinase 14 (Homo sapiens), sequence (O94921 whole entry): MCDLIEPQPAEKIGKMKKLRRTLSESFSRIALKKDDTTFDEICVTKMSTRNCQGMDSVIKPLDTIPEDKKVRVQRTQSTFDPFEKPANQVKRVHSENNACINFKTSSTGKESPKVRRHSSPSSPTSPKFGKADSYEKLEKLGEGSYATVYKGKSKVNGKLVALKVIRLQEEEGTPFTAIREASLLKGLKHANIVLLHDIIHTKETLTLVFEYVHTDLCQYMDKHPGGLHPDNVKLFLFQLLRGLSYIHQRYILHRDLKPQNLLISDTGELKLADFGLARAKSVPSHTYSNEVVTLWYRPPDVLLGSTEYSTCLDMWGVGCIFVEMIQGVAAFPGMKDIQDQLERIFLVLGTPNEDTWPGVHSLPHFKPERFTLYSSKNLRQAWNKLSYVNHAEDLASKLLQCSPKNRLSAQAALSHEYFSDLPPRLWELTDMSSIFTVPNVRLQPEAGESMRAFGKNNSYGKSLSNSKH

[14] = target: Leucine-rich repeat serine/threonine-protein kinase 2 (Homo sapiens, UniProt Q5S007); assay: Selectivity interaction (Adapta Assay) EUB0001632a LRRK2; details: at 10 µM

Compound: CN(C)C/C=C/C(=O)Nc1ccc(C(=O)N2CCCC(Nc3ncc(Cl)c(-c4c[nH]c5ccccc45)n3)C2)cc1 (stereo unspecified)
% of control [2]: 89%

Compound: CNC(=O)Nc1ccc(-c2nc(N3CC4CCC(C3)O4)c3cnn(C4CCC5(CC4)OCCO5)c3n2)cc1
% of control [3]: 97%
% of inhibition [4]: 7%

Compound: N#Cc1cccc(-c2c[nH]c3ncnc(N4CCOCC4)c23)c1
% of control [5]: 99%
% of control [6]: 93%

Compound: C=CC(=O)Nc1cc(-n2c(=O)ccc3cnc4ccc(-c5ccc(NS(C)(=O)=O)cc5)cc4c32)ccc1C
% of control ([7]; at 1 µM): 84%
% of control ([7]; at 10 µM): 100%

Compound: CCC(=O)N1CCN(c2ccc(-n3c(=O)ccc4cnc5ccc(-c6cnc7ccccc7c6)cc5c43)cc2C(F)(F)F)CC1
% of control [13]: 99%

More lines, now with the values ahead:

% of control [1]: 110%
Compound: CC(=O)c1cc(-c2ccccc2OCC2CC2)c2ncccn12

% of inhibition [8]: 27%
% of inhibition [9]: -8%
Compound: Cc1ccc(-c2ccc3c(ccc4sc5c(c43)NC[C@@H](C)NC5=O)n2)cn1

% activity [10]: 42%
Compound: CNCCN1CCC(c2cc(CN(C)C(=O)c3cccc(Oc4ccccc4)c3)ccn2)CC1

IC50 [11]: > 10 µM
Compound: CCc1cccc(CC)c1NC(=O)c1nn(C)c2c1CCc1cnc(Nc3ccc(C(=O)NC4CCN(C)CC4)cc3OC(F)(F)F)nc1-2

% of control ([12]; at 1 µM): 71%
% of control ([12]; at 5 µM): 49%
Compound: C=CC(=O)Nc1cccc(C(=O)Nc2ccc(Nc3cc(-c4[nH]c(SC)nc4C)ccn3)cc2)c1

% of inhibition [14]: 100%
Compound: Cn1cc(-n2cnc3c(NCc4nc5cc(Cl)c(Cl)cc5[nH]4)nc(N4CCOCC4)nc32)cn1
